Measurements published in article PMC6264397, “Interaction of the Main Components from the Traditional Chinese Drug Pair Chaihu-Shaoyao Based on Rat Intestinal Absorption” (Molecules, 2011).
Several values for one entry are separate records, joined by “and”; a condition that tells them apart may be missing. Equal entries are not always repeated. Where two headings read alike, the source gives them in different places.

How the values were obtained:
[1] = system: rat intestine; assay: four-site single-pass perfused rat intestinal model; type: in vivo; parameters: P*eff Duodenum / P*eff Jejunum / P*eff Ileum: unit not given here
Description: The absorptions of SSA, SSD and paeoniflorin in different intestinal segments were studied by the rat intestinal perfusion model. The concentrations of all the compounds of interest were 20 μmol·L^−1. The concentrations of the compounds in the perfusate samples were analyzed by UPLC or LC/MS, and then the P*eff and […] of SSA, SSD and paeoniflorin were calculated.
The perfusion protocol was approved by the Animal Ethics Committee of Jiangsu Provincial Academy of Chinese Medicine. The intestinal surgical procedures were described in our previous publications. Briefly, rats were anesthetized with an intra-muscular injection of urethane (0.5 g mL^−1) and placed on a heated surface maintained at its normal body temperature. Four segments of intestine, duodenum, jejunum, ileum, and colon (8–12 cm) were simultaneously cannulated with no disruption of circulation to the intestine, each with two cannulae. After cannulation, the small intestinal segments were placed carefully into the abdominal cavity, avoiding crimping or kinking of the segments. To keep the temperature of the perfusate constant, the inlet cannulate was kept warm by a 37 °C circulating water bath.
This is a single-pass perfusion method. Four segments of the intestine (duodenum, upper jejunum, terminal ileum, and colon) were perfused simultaneously with a perfusate containing the compound of interest using an infusion pump (Harvard Apparatus, Cambridge, MA, USA) at a flow rate of 0.2 mL min^−1. After a 30-min washout period, which is usually sufficient to achieve the steady-state absorption, four samples were collected from the outlet cannulae every 30 min afterward. After perfusion, the length of the intestine was measured as described previously. The outlet concentrations of the test compounds in the luminal perfusate were determined by HPLC or LC/MS.
The outlet concentrations of SSA and SSD were determined by LC/MS using a HPLC-Agilent 6410 Triple Quad (Agilent, Palo Alto, CA, USA) system equipped with an atmospheric-pressure chemical ionization source. The samples were separated on a Zorbax SB-C18 column (250 mm × 4.6 mm, 5 μm, Agilent) and Zorbax SB-C18 precolumn (4.6 × 12.5 mm, […], Agilent). The mobile phase consisted of acetonitrile and water (40:60, v/v), and the flow rate was 0.4 mL·min^−1. The column temperature was maintained at 35 °C and the injection volume was 20 μL. For MS analysis, atmospheric-pressure chemical ionization (APCI) source was operated in the negative ion mode. The selected parameters were as follows: drying nitrogen gas at 350 °C and a flow-rate of […]; nebulizer pressure at 20 p.s.i.g. (1 p.s.i. = 6894.76 Pa); vaporizer temperature at 325 °C; capillary voltage at 4,500 V and corona current at 4 μA. The chromatograms obtained for quantitation were recorded under time-scheduled SIM, with fragmentor voltages was set at 150 V. The scan range was from m/z 250 to m/z 1,000. The instrument was programmed for a scan dwell time of 200 ms. Intense […] ions at m/z 781 and m/z 255 were shown for SSA (SSD) and chrysin(internal standard). In general, these methods were selective and reproducible with day to day variability of less than 3%. The tested linear response range for SSA and SSD was 0.625 to 80 μM. The accuracy and precision were greater than 98%. The recovery of three different concentrations was around 90.91%~92.66%, and RSD was less than 5% (n = 5).
UPLC was used to analyze the concentration of paeoniflorin in the perfusate samples. The conditions were as follows: Waters Acquity™ system, with diode array detector and Empower software; column, Acquity UPLC BEH C-18 1.7 μm, 50 × 2.1 mm, (Waters, Milford, MA, USA); mobile phase A, water; mobile phase B, acetonitrile; gradient, 0~0.8 min, 15~22% B, 0.8~1.0 min, 22% B, 1.0~1.5 min, 35% B, 1.5~2.2 min, 70% B; flow rate, 0.4 mL·min^−1; wavelength 230 nm (paeoniflorin) and 245 nm (testosterone, the internal standard); column temperature, 35 °C; injection volume, 10 μL. […]

[2] = system: Caco-2 cell; parameters: method as in earlier work; conditions: cited from earlier work
[3] = co-administrated with SSA, colon
[4] = co-administrated with SSA, ileum
[5] = co-administration with SSD, colon
[6] = co-administration with SSD, ileum
[7] = compound alone, 20 μmol·L−1, colon, n = 4
[8] = compound alone, 20 μmol·L−1, duodenum, n = 4
[9] = compound alone, 20 μmol·L−1, ileum, n = 4
[10] = compound alone, 20 μmol·L−1, jejunum, n = 4

C[C@@]12C[C@@]3(O)O[C@@H](O1)[C@]1(COC(=O)c4ccccc4)[C@H]3C[C@@]12O[C@@H]1O[C@H](CO)[C@@H](O)[C@H](O)[C@H]1O [Paeoniflorin, paeoniflorin]
P*eff Colon ([1]; co-administrated with SSA (20:20 μmol·L−1), colon): 0.636 ± 0.034 | P*eff Duodenum ([1]; co-administrated with SSA (20:20 μmol·L−1), duodenum): 0.279 ± 0.049 | P*eff Ileum ([1]; co-administrated with SSA (20:20 μmol·L−1), ileum): 0.665 ± 0.053 | P*eff Jejunum ([1]; co-administrated with SSA (20:20 μmol·L−1), jejunum): 0.263 ± 0.029 | fold increase of 10% ABS vs individual compound [1, 3]: 1.25 fold | fold increase of P*eff vs individual compound [1, 3]: 1.90 fold | fold increase of 10% ABS vs individual compound [1, 4]: 1.40 fold | fold increase of P*eff vs individual compound [1, 4]: 2.11 fold and ~2.11 fold | P*eff Colon ([1]; co-administrated with SSD, colon): 0.696 ± 0.054 | P*eff Duodenum ([1]; co-administrated with SSD, duodenum): 0.304 ± 0.048 | P*eff Ileum ([1]; co-administrated with SSD, ileum): 0.731 ± 0.052 | P*eff Jejunum ([1]; co-administrated with SSD, jejunum): 0.280 ± 0.051 | 10 cm % ABS Colon ([1]; co-administration with SSA (20:20 μmol·L−1), colon, n = 4): 12.07 ± 0.46 * % | 10 cm % ABS Colon ([1]; co-administration with SSA (20:20 μmol·L−1), colon, n = 4, listed as paeoniflorin): 12.07 ± 0.46% | 10 cm % ABS Duodenum ([1]; co-administration with SSA (20:20 μmol·L−1), duodenum, n = 4): 6.13 ± 1.82% | 10 cm % ABS Ileum ([1]; co-administration with SSA (20:20 μmol·L−1), ileum, n = 4): 12.57 ± 0.36 * % | 10 cm % ABS Ileum ([1]; co-administration with SSA (20:20 μmol·L−1), ileum, n = 4, listed as paeoniflorin): 12.57 ± 0.36% | 10 cm % ABS Jejunum ([1]; co-administration with SSA (20:20 μmol·L−1), jejunum, n = 4): 4.78 ± 1.15% | fold increase of 10% ABS vs individual compound [1, 5]: 1.51 fold | fold increase of P*eff vs individual compound [1, 5]: 2.18 fold | 10 cm % ABS Colon ([1]; co-administration with SSD, colon, n = 4): 13.48 ± 0.57 * % | 10 cm % ABS Colon ([1]; co-administration with SSD, colon, n = 4, listed as paeoniflorin): 13.48 ± 0.57% | 10 cm % ABS Duodenum ([1]; co-administration with SSD, duodenum, n = 4): 6.68 ± 1.91% | fold increase of 10% ABS vs individual compound [1, 6]: 1.63 fold | fold increase of P*eff vs individual compound [1, 6]: 2.42 fold and ~1.90 fold | 10 cm % ABS Ileum ([1]; co-administration with SSD, ileum, n = 4): 13.75 ± 0.99 * % | 10 cm % ABS Ileum ([1]; co-administration with SSD, ileum, n = 4, listed as paeoniflorin): 13.75 ± 0.99% | 10 cm % ABS Jejunum ([1]; co-administration with SSD, jejunum, n = 4): 5.77 ± 1.39% | 10 cm % ABS Colon [1, 7]: 5.37 ± 1.19% | P*eff Colon [1, 7]: 0.219 ± 0.051 | P*eff Colon ([1]; compound alone, 20 μmol·L−1, colon, n = 4, listed as paeoniflorin): 0.219 | 10 cm % ABS Duodenum [1, 8]: 6.57 ± 0.98% | P*eff Duodenum [1, 8]: 0.268 ± 0.042 | P*eff Duodenum ([1]; compound alone, 20 μmol·L−1, duodenum, n = 4, listed as paeoniflorin): 0.268 | 10 cm % ABS Ileum [1, 9]: 5.23 ± 0.49% | P*eff Ileum [1, 9]: 0.214 ± 0.021 | P*eff Ileum ([1]; compound alone, 20 μmol·L−1, ileum, n = 4, listed as paeoniflorin): 0.214 | 10 cm % ABS Jejunum [1, 10]: 5.94 ± 0.70% | P*eff Jejunum [1, 10]: 0.243 ± 0.030 | P*eff Jejunum ([1]; compound alone, 20 μmol·L−1, jejunum, n = 4, listed as paeoniflorin): 0.243 | change of electric resistance values of Caco-2 cell membranes ([2]; after individual paeoniflorin was transported): no significant change | change of electric resistance values of Caco-2 cell membranes ([2]; paeoniflorin co-administered with saikosaponins): significantly decreased

C[C@H]1O[C@@H](O[C@H]2CC[C@@]3(C)[C@@H](CC[C@]4(C)[C@@H]3C=C[C@]35OC[C@@]6(CCC(C)(C)C[C@H]63)[C@@H](O)C[C@]54C)[C@]2(C)CO)[C@H](O)[C@@H](O[C@@H]2O[C@H](CO)[C@@H](O)[C@H](O)[C@H]2O)[C@H]1O [SSA, saikosaponin a]
P*eff Colon ([1]; co-administrated with paeoniflorin (20:20 μmol·L−1), colon): 0.215 ± 0.030 | P*eff Duodenum ([1]; co-administrated with paeoniflorin (20:20 μmol·L−1), duodenum): 0.193 ± 0.028 | P*eff Ileum ([1]; co-administrated with paeoniflorin (20:20 μmol·L−1), ileum): 0.347 ± 0.036 | P*eff Jejunum ([1]; co-administrated with paeoniflorin (20:20 μmol·L−1), jejunum): 0.194 ± 0.023 | 10 cm % ABS Colon ([1]; co-administration with paeoniflorin (20:20 μmol·L−1), colon, n = 4): 3.51 ± 0.73% | 10 cm % ABS Duodenum ([1]; co-administration with paeoniflorin (20:20 μmol·L−1), duodenum, n = 4): 4.11 ± 0.30% | 10 cm % ABS Ileum ([1]; co-administration with paeoniflorin (20:20 μmol·L−1), ileum, n = 4): 5.20 ± 0.67% | 10 cm % ABS Jejunum ([1]; co-administration with paeoniflorin (20:20 μmol·L−1), jejunum, n = 4): 3.49 ± 0.61% | 10 cm % ABS Colon [1, 7]: 3.84 ± 0.10% | P*eff Colon [1, 7]: 0.239 ± 0.042 | 10 cm % ABS Duodenum [1, 8]: 3.75 ± 0.57% | P*eff Duodenum [1, 8]: 0.193 ± 0.028 | 10 cm % ABS Ileum [1, 9]: 6.26 ± 0.56 * % | P*eff Ileum [1, 9]: 0.361 ± 0.014 * | 10 cm % ABS Jejunum [1, 10]: 3.91 ± 0.60% | P*eff Jejunum [1, 10]: 0.207 ± 0.012
